# According to patent US20140120060A1, “TREATMENT OF RHEUMATOID ARTHRITIS AND ASTHMA USING PI3 KINASE INHIBITORS” (INFINITY PHARMACEUTICALS, INC., priority 2012, published 2014):
# Several values for one entry are separate records, joined by “and”; a condition that tells them apart may be missing. Equal values may be shown once. Entries after “also recorded” stand apart in the source; their conditions may differ. Read-outs that look alike come from different tables or passages of the source. Marks after values point to notes of the source that are not given here.
# How the values were obtained:
# respiratory system = test: Respiratory study in Sprague-Dawley rat; details: male rats, single oral dose up to 350 mg/kg
# [1] = tested on: hemodynamic and electrocardiographic parameters; test: Cardiovascular study in instrumented cynomolgus monkey; type: in vivo
# Description: Four non-naive, male monkeys implanted with radiotelemetry transmitters were utilized during the conduct of this study.
# [2] = Embryo/fetal developmental toxicity study in rabbits; details: female, rabbit, in vivo; pregnant rabbits, last day of dosing, 75 mg/kg/day; read-out: mean AUC0-24 hr at the NOAEL
# [3] = Clinical study in healthy adult subjects: pharmacokinetics; type: in vivo, human; details: for half-life / AUC(0-t) / AUC(0-inf) / Cmax / Vd/F: human, plasma; for Vd/F: read-out: Vz/F
# [4] = tested on: developing or established type II collagen arthritis; test: Rat collagen-induced arthritis model, alone or in combination with methotrexate or etanercept; type: in vivo; details: 2.5, 5 or 50 mg/kg daily oral, alone or in combination with MTX or etanercept
# Method: Treatment was administered either alone or in combination with the reference compounds MTX, or etanercept. All rats were administered MTX, vehicle 2 (1% CMC in water), or vehicle 1 on days 0-20 in order to keep dose manipulations consistent for all groups. Animals were terminated on day 21. Efficacy evaluation was based on daily ankle caliper measurements, ankle diameter expressed as area under the curve (AUC), and terminal hind paw weights.
# B cell = B cell proliferation; type: cell-based
# PI3K δ = PI3K δ (Homo sapiens, UniProt O00329); test: Clinical study in healthy adult subjects: basophil activation (CD63 on CCR3+ basophils); type: in vivo; design: from tissue; host or cells: blood basophils (CCR3+) of healthy adult subjects
# Chain of PI3K δ (O00329 whole entry): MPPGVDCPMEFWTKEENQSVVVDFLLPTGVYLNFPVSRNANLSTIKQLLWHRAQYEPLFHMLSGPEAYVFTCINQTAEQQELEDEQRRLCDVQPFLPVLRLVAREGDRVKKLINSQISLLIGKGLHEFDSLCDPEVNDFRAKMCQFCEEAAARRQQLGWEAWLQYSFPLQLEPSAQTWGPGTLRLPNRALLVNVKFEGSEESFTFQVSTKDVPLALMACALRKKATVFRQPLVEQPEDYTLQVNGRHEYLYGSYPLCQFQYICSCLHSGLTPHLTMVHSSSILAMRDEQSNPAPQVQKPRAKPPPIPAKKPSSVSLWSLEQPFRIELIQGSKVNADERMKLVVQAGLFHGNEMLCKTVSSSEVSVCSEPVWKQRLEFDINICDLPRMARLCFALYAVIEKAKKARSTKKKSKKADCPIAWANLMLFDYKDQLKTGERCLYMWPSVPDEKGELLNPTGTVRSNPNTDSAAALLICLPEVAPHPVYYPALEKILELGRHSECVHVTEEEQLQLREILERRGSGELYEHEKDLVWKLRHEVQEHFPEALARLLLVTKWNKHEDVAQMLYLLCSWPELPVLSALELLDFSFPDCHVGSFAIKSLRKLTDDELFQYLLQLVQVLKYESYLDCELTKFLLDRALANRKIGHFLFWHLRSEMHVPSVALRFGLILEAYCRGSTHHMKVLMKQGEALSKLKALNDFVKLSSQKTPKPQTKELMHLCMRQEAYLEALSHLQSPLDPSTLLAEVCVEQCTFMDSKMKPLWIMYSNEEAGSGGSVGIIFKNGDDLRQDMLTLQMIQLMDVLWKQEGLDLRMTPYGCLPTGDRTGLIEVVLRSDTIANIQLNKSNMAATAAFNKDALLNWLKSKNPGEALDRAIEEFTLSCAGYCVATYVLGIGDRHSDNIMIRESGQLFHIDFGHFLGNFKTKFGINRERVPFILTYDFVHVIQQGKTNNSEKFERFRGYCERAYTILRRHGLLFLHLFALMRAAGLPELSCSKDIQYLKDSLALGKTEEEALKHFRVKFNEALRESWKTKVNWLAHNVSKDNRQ
# Chain of PI3K δ (P27986 whole entry partner): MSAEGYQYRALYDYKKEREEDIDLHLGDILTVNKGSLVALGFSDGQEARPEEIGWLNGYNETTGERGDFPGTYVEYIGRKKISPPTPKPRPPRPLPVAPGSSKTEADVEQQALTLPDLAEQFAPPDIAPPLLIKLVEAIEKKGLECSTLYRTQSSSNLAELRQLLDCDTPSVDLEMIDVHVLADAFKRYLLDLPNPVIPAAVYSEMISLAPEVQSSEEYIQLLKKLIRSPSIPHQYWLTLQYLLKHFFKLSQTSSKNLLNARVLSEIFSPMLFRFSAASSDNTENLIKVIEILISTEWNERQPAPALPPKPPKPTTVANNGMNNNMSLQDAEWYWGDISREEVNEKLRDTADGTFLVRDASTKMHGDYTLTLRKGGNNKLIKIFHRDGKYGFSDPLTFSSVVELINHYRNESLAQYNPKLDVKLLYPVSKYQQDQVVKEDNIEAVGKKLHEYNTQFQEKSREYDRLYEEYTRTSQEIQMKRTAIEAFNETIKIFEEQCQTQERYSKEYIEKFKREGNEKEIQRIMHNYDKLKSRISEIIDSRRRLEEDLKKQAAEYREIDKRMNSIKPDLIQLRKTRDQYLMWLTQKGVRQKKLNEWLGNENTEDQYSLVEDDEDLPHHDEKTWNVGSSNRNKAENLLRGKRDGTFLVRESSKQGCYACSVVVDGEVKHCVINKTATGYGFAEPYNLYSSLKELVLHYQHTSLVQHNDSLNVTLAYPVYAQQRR
# Caco-2 cell monolayers = test: Membrane permeability in Caco-2 cell monolayers; type: in vitro ADME, human
# [5] = tested on: ovalbumin-induced lung inflammation; test: Ovalbumin-induced murine model of asthma
# [6] = tested on: established type II collagen-induced arthritis; test: Rat collagen-induced arthritis model (established); type: in vivo
# Method: Etanercept (10 mg/kg) was administered subcutaneously on days 10 and 13 as a positive control. The study was terminated on day 17.
# [7] = Pharmacokinetics in Beagle dogs; type: in vivo, dog; details: PO 5 mg/kg
# Human T-cell = Human T-cell proliferation; type: cell-based
# [8] = tested on: ovalbumin-induced pulmonary inflammation; test: Rat ovalbumin allergic asthma model
# PBMCs = test: R848 induced cytokine production in PBMCs; type: cell-based, human
# Method: (§1) These experiments were conducted using PBMCs.
# PI3K-β = target: T1, PI3K-β (Homo sapiens, UniProt P42338); test: PI3K-β specific assay in platelets (thrombin peptide, activated GPIIb/IIIa); type: cell-based
# T1 construct: from tissue; host or cells: platelets in whole blood
# T1 sequence (P42338 whole entry): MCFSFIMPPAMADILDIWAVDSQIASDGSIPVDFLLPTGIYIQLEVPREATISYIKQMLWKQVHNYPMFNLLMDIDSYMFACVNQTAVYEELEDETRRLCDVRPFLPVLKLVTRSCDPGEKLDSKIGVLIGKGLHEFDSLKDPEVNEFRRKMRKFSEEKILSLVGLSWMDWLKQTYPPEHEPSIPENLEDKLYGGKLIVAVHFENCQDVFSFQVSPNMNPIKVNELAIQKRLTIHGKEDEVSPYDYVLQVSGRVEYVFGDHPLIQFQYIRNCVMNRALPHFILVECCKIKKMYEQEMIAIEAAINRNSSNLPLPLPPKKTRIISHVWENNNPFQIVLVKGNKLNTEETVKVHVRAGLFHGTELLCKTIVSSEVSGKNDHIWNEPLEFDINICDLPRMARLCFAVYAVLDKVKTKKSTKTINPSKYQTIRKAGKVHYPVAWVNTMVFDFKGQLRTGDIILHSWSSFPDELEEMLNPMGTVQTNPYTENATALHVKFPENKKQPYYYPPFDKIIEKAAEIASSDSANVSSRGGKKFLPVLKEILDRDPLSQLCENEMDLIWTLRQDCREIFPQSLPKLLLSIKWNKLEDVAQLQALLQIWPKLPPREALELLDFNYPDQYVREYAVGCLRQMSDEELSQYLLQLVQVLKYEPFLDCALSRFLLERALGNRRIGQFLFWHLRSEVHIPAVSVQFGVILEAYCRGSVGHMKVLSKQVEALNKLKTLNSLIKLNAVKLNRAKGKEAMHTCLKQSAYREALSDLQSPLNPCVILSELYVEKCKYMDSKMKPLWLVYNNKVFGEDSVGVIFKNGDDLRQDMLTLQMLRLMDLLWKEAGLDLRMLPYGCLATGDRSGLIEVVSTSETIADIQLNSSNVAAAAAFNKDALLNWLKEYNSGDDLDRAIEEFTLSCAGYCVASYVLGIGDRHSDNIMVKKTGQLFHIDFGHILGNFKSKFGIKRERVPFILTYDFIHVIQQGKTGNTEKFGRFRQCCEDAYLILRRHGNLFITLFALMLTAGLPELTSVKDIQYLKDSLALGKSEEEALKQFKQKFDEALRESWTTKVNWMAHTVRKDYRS
# T1 sequence (P27986 whole entry partner): as the sequence (P27986 whole entry partner) above
# TLR9 = test: CPG-A induced cytokine production in PBMCs; type: cell-based, human
# Method: Human PBMCs were stimulated with CPG-A. CPG-A selectively activates PDCs, inducing IFN-α production via TLR9. IFN-α is a PDC cell selective readout. Primary human PBMCs from two normal human donors were used as a source of PDC cells. 200 K cells per well were used. […] Then the cells were treated with the specified concentration of CPG-A for 16 hours. RPMI-5% serum was employed.
# as §1
# [9] = Pharmacokinetics in cynomolgus monkeys; type: in vivo, monkey
# human P-glycoprotein = target: T2, human P-glycoprotein (Homo sapiens, UniProt P08183); test: Interaction with human P-glycoprotein in Caco-2 cell monolayers; type: in vitro ADME
# T2 construct: endogenous in cells; host or cells: Caco-2 cell monolayers
# T2 sequence (P08183 whole entry): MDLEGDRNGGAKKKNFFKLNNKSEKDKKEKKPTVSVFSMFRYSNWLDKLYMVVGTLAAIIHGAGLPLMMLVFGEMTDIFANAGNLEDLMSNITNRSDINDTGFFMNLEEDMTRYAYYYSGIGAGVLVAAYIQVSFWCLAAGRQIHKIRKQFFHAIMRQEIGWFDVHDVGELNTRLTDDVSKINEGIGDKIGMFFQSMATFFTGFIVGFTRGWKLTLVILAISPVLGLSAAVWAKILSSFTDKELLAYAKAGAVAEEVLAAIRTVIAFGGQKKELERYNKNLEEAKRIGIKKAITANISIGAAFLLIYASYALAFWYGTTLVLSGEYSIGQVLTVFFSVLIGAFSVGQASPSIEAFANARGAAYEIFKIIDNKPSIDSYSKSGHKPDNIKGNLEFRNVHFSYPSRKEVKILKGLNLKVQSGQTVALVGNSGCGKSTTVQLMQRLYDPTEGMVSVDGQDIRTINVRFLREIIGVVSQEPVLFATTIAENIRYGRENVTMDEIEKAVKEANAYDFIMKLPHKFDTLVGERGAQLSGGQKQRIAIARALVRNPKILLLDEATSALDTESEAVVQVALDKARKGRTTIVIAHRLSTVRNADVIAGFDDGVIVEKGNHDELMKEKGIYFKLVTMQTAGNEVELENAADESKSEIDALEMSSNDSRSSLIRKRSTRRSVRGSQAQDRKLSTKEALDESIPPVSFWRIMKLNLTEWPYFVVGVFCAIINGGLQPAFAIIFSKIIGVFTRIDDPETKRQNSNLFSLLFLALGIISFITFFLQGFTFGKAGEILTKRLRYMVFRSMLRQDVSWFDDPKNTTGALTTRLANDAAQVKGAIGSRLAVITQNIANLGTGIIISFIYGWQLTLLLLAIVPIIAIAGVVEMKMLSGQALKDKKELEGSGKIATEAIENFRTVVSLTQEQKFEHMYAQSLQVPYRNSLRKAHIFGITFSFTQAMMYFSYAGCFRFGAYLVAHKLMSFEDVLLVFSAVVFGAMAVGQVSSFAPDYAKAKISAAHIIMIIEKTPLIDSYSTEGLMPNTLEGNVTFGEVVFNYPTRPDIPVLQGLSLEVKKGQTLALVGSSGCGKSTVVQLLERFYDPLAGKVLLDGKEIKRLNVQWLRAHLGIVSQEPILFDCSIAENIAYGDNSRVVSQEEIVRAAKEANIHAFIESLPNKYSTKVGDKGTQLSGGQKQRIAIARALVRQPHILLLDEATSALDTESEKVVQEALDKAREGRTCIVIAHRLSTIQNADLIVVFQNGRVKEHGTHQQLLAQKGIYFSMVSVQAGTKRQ
# [10] = DDI portion, 10 mg with 200 mg q12h ketoconazole
# [11] = single oral dose 1 mg, mean (%CV)
# [12] = single oral dose 2 mg, mean (%CV)
# [13] = single oral dose 5 mg, mean (%CV)
# [14] = single oral dose 10 mg, mean (%CV)
# [15] = single oral dose 20 mg, mean (%CV)
# [16] = single oral dose 30 mg, mean (%CV)
# [17] = monkey, in vivo, cynomolgus monkeys, IV 1 mg/kg
# [18] = monkey, in vivo, cynomolgus monkeys, PO 5 mg/kg suspension
smiles,measurement,setting,value
C[C@H](Nc1ncnc2[nH]cnc12)c1cc2cccc(Cl)c2c(=O)n1-c1ccccc1 [Compound 292],"respiratory parameters (respiratory rate, tidal volume, minute volume)",respiratory system,no Compound 292-related effects
same,hemodynamic or electrocardiographic parameters,"[1]; male cynomolgus monkeys, single oral dose of 5, 30 and 150 mg/kg",No Compound 292-related effects
same,waveform abnormalities or arrhythmias,[1]; up to 150 mg/kg,no waveform abnormalities or arrhythmias
same,AUC(0-t),[2],66200 ng·h/mL
same,excretion of unchanged compound in urine,[3],< 2 % of the administered dose
same,time to peak plasma concentrations,[3],0.5 to 1 h
same,accumulation,[3]; 14 days of Q12 h oral administration,less than 2 fold
same,increase of AUC0-inf in the presence of ketoconazole,[3]; [10],~295%
same,increase of AUC0-last in the presence of ketoconazole,[3]; [10],~285%
same,increase of Cmax in the presence of ketoconazole,[3]; [10],approximately 66%
same,decrease of Cmax in the presence of a high fat meal,"[3]; food effect portion, 25 mg",approximately 10%
same,half-life,"[3]; oral, following a single dose, read-out: half-life",3.5 to 9.5 h
same,AUC(0-t),"[3]; po, 1 mg, single oral dose 1 mg, mean (%CV), read-out: AUC(0-24)",149 ng·h/mL
same,AUC(0-t),"[3]; po, 1 mg, single oral dose 1 mg, mean (%CV), read-out: AUC(0-t)",148 ng·h/mL
same,half-life,"[3]; po, 1 mg, single oral dose 1 mg, mean (%CV), read-out: T1/2 (converted)",3.52 h
same,AUC(0-t),"[3]; po, 2 mg, single oral dose 2 mg, mean (%CV), read-out: AUC(0-24)",289 ng·h/mL
same,AUC(0-t),"[3]; po, 2 mg, single oral dose 2 mg, mean (%CV), read-out: AUC(0-t)",291 ng·h/mL
same,half-life,"[3]; po, 2 mg, single oral dose 2 mg, mean (%CV), read-out: T1/2 (converted)",5.43 h
same,AUC(0-t),"[3]; po, 5 mg, single oral dose 5 mg, mean (%CV), read-out: AUC(0-24)",733 ng·h/mL
same,AUC(0-t),"[3]; po, 5 mg, single oral dose 5 mg, mean (%CV), read-out: AUC(0-t)",735 ng·h/mL
same,half-life,"[3]; po, 5 mg, single oral dose 5 mg, mean (%CV), read-out: T1/2 (converted)",5.43 h
same,AUC(0-t),"[3]; po, 10 mg, single oral dose 10 mg, mean (%CV), read-out: AUC(0-24)",891 ng·h/mL
same,AUC(0-t),"[3]; po, 10 mg, single oral dose 10 mg, mean (%CV), read-out: AUC(0-t)",905 ng·h/mL
same,half-life,"[3]; po, 10 mg, single oral dose 10 mg, mean (%CV), read-out: T1/2 (converted)",9.47 h
same,AUC(0-t),"[3]; po, 20 mg, single oral dose 20 mg, mean (%CV), read-out: AUC(0-24)",2190 ng·h/mL
same,AUC(0-t),"[3]; po, 20 mg, single oral dose 20 mg, mean (%CV), read-out: AUC(0-t)",2240 ng·h/mL
same,half-life,"[3]; po, 20 mg, single oral dose 20 mg, mean (%CV), read-out: T1/2 (converted)",7.79 h
same,AUC(0-t),"[3]; po, 30 mg, single oral dose 30 mg, mean (%CV), read-out: AUC(0-24)",3260 ng·h/mL
same,AUC(0-t),"[3]; po, 30 mg, single oral dose 30 mg, mean (%CV), read-out: AUC(0-t)",3380 ng·h/mL
same,half-life,"[3]; po, 30 mg, single oral dose 30 mg, mean (%CV), read-out: T1/2 (converted)",8.12 h
same,AUC(0-inf),[3]; [11],151 ng·h/mL
same,Cmax,[3]; [11],43.4 ng/mL
same,Vd/F,[3]; [11],38.8 L
same,AUC(0-inf),[3]; [12],296 ng·h/mL
same,Cmax,[3]; [12],78.8 ng/mL
same,Vd/F,[3]; [12],57.9 L
same,AUC(0-inf),[3]; [13],743 ng·h/mL
same,Cmax,[3]; [13],246 ng/mL
same,Vd/F,[3]; [13],53 L
same,AUC(0-inf),[3]; [14],914 ng·h/mL
same,Cmax,[3]; [14],454 ng/mL
same,Vd/F,[3]; [14],147 L
same,AUC(0-inf),[3]; [15],2250 ng·h/mL
same,Cmax,[3]; [15],997 ng/mL
same,Vd/F,[3]; [15],99.1 L
same,AUC(0-inf),[3]; [16],3400 ng·h/mL
same,Cmax,[3]; [16],1140 ng/mL
same,Vd/F,[3]; [16],113 L
same,effects on parameters of developing and established type II collagen arthritis,[4],beneficial effects
same,tolerability,[4],well tolerated
same,EC50,B cell,< 100 nM
same,Emax (reduction of basophil activation vs plasma concentration),PI3K δ; FIG. 21,85%
same,basophil activation,"PI3K δ; single and multiple doses, all dose levels, maximum at 1 hr post dose",dose-dependent reduction
same,cell membrane permeability,Caco-2 cell monolayers,moderate
same,leukocyte migration into the bronchoalveolar space,[5]; FIG. 15,inhibited
same,eosinophil influx into the airway space (BAL fluid),"[5]; all doses tested, 0.03 to 10 mg/kg PO",significantly blocked
same,lymphocyte and monocyte accumulation in BAL fluid,[5]; ovalbumin induced,reduced
same,mean ankle diameter at the end of the treatment period vs vehicle,"[6]; PO QD days 10-16, all doses 0.5-10 mg/kg, not at 0.1 mg/kg",significantly decreased
same,serum IgE levels vs vehicle controls,[6]; rat CIA model,Significant increases
same,summed ankle histological scores,[6]; rat CIA model,prevented inflammation and protected joint bone and cartilage
same,Foral,[7]; calculated using 0.5 mg/kg IV dose as reference and AUC0-last,"97^g,i %"
same,Foral,[7]; calculated using 1 mg/kg IV dose as reference and AUC0-last,"40% and 40^h,i %"
same,EC50,Human T-cell,9.5 nM
same,"levels of TNF-α, KC/GRO, IL-13 and IL-5 in the BAL",[8]; 10 mg/kg PO,inhibited; also recorded: significantly suppressed
same,neutrophils and eosinophils in the BAL,"[8]; 1 and 10 mg/kg PO, 48 hours after re-challenge",significantly reduced
same,leukocyte migration into the bronchoalveolar space,[8]; FIG. 16,inhibited
same,R848 induced IFN-α,PBMCs,did not detectably affect
same,R848 induced IL-1,PBMCs,slightly inhibited
same,R848 induced IL-6,PBMCs,did not detectably affect
same,R848 induced IL-8,PBMCs,did not detectably affect
same,R848 induced TNF-α,PBMCs,did not detectably affect
same,window between PI3K-γ and PI3K-β inhibition in whole blood,PI3K-β,about 4 fold
same,CPG-A induced IL-6 production,TLR9; PBMCs,Inhibited
same,CPG-A induced IL-8 production,TLR9; PBMCs,Inhibited
same,CPG-A induced TNF-α production,TLR9; PBMCs,Inhibited
same,CPG-A induced IFN-α production,TLR9; human PBMCs,potently inhibited; also recorded: blocked
same,Foral,"[9]; cynomolgus monkeys, PO 5 mg/kg suspension",40%
same,AUC(0-inf),[9]; [17],2380 ng·h/mL
same,AUC(0-t),[9]; [17],2360 ng·h/mL
same,Tmax,[9]; [17],0.083 h
same,clearance,[9]; [17],7.17 mL/min/kg
same,half-life,"[9]; monkey, in vivo, cynomolgus monkeys, IV 1 mg/kg, read-out: T1/2 (converted)",5 h
same,Vd,"[9]; monkey, in vivo, cynomolgus monkeys, IV 1 mg/kg, read-out: Vss",1.27 L/kg
same,AUC(0-inf),[9]; [18],4680 ng·h/mL
same,AUC(0-t),[9]; [18],4600 ng·h/mL
same,Cmax,[9]; [18],1330 ng/mL
same,Tmax,[9]; [18],1.5 h
same,half-life,"[9]; monkey, in vivo, cynomolgus monkeys, PO 5 mg/kg suspension, read-out: T1/2 (converted)",5.4 h
same,half-life,"[9]; monkey, in vivo, monkeys, read-out: half-life (converted)",5 h
same,P-gp substrate status,human P-glycoprotein,is a P-gp substrate
same,inhibition of active transport of other P-gp substrates,human P-glycoprotein,has the potential to inhibit the active transport of other P-gp substrates
